In patent publication US7553798B2, “Heterocyclic carboxamides with microbiocidal activity” (Syngenta Crop Protection, Inc., priority 2004, dated 2009):

| Compound | melting point |
| --- | --- |
| Cn1cc(C(=O)Nc2ccccc2-c2ccc(C#CC(C)(C)C)s2)c(C(F)(F)F)n1 [Compound 1ai.098, 1-methyl-3-trifluoromethyl-1H-pyrazole-4-carboxylic acid {2-[5-(3,3-dimethyl-but-1-ynyl)-thiophen-2-yl]-phenyl}-amide] | 122 to 125 °C |
| Cn1cc(C(=O)Nc2ccccc2-n2cc(C#CC(C)(C)C)cn2)c(C(F)F)n1 [Compound 1ar.099, 3-difluoromethyl-1-methyl-1H-pyrazole-4-carboxylic acid {2-[4-(3,3-dimethyl-but-1-ynyl)-pyrazol-1-yl]-phenyl}-amide] | 145 to 148 °C |
